Experiments:
[1] = system: Pseudomonas aeruginosa NCTC-10490; assay: antimicrobial activity, minimal inhibitory concentration (agar streak); type: cell-based; conditions: NCTC10490, heart infusion agar, 37° C., 20 hours, overnight culture 10^8 viable cells per ml
Experimental: (§1) One loopful of an overnight culture of each test strain in Trypticase-soy broth (10^8 viable cells per ml.) was streaked on heart infusion agar (HI-agar) containing graded concentrations of antibiotics, and the minimal inhibitory concentration (MIC) was expressed in terms of μg/ml after incubation at 37° C. for 20 hours.

Staphylococcus aureus 6 = assay: as above; type: cell-based; conditions: heart infusion agar, 37° C., 20 hours, overnight culture 10^8 viable cells per ml
Experimental: as §1

CC(C)(O)[C@@H]1C(=O)N2C(C(=O)[O-])=C(SCCN)C[C@H]12.[K+] [potassium (5R,6R)-3-(2-aminoethylthio)-6-(1-hydroxy-1-methylethyl)-7-oxo-1-azabicyclo[3.2.0]hept-2-ene-2-carboxylate]
MIC [1]: 12.5 µg/mL | MIC (Staphylococcus aureus 6): 1.56 µg/mL
